# Assay results: US20240246979A1, “cGAS INHIBITORS” (Eli Lilly and Company, priority 2022, published 2024)
# pIC50: −log10 of the molar value.
# Experiments:
# cGAS [1] = target: T1, cGAS (Homo sapiens, UniProt Q8N884); experiment: Cellular assay to measure cGAS activity (IFNb AlphaLISA in THP1 cells stimulated by RDG-Adenovirus-GFP); format: cell-based; parameters: host or cells: THP1 cells differentiated with PMA and stimulated with RDG-Adenovirus-GFP; details: PMA-differentiated THP1 cells, RDG-Adenovirus-GFP at 1000 MOI; inhibition of IFNb production as marker for cGAS activity
# Procedure: Cellular assay to measure cGAS activity: Use THP1 cell line from ATCC to determine inhibition of cGAS activity by test compounds in human cells. Plate cells on 96-well plates at 0.2×10^6/well and differentiate with phorbol myristate acetate (PMA) at 37° C./5% CO2. After 24 hours, replace PMA containing media with media lacking PMA and further incubate overnight. Stimulate cells were then by RDG-Adenovirus-GFP (Vector Biolabs #1768) at 1000 MOI for 4 hours prior to the addition of test compounds. After overnight incubation, transfer 10 μL of the media from each well to a new plate for IFNb analysis as a marker for cGAS activity. Measure quantification of IFNb with an IFNb AlphaLISA Detection kit (Perkin Elmer AL3133F) by mixing the acceptor beads with the cell supernatant followed by the addition of the biotinylated antibody and donor beads. Measure the relative fluorescence signal produced from the interaction of the donor and acceptor beads by a PHERAStar AlphaLISA protocol and evaluate the inhibitory effect of a compound by plotting specific inhibition of IFNb production against log concentration of the test compound. Calculate IC50 values using a 4-parameter non-linear logistic equation (y=(S0+((SInf−S0)/(1+((qAC50/x)^nHill))))).
# cGAS [2] = target: T1, cGAS; experiment: In vitro inhibition assay of cGAS activity (cGAMP production, RapidFire mass spectrometry); format: biochemical; parameters: Insert cDNA encoding full-length of human cGAS; His6; made in house; host or cells: E. coli BL21(DE3); details: 10 nM recombinant human cGAS, 60 nM 75-bp dsDNA, 50 μM ATP, 50 μM GTP, 3 hrs
# Procedure: Expression and Purification of Recombinant cGAS Protein: Insert cDNA encoding full-length of human cGAS into a modified bacterial expression vector containing an in-frame His6-tag. Induce the E. coli strain BL21(DE3) harboring the plasmid with 1 mM IPTG (Isopropyl β-D-1-thiogalactopyranoside) at 18° C. overnight. Purify the His6-tagged cGAS protein over HISpur Ni-NTA resin in the presence of benzonase and RNase followed by Superdex 200 size exclusion chromatography with storage buffer (50 mM Tris-HCl pH 7.5, 300 mM NaCl, 1 mM DTT, 10% glycerol).
# In vitro inhibition assay of cGAS activity: Add a 5 μL mixture containing 10 mM Tris-Cl pH 7.5, 50 mM NaCl, 5 mM MgCl2, 1 mM DTT, 0.01% Triton X-100, 60 nM 75-bp dsDNA, 50 μM ATP, 50 μM GTP, 10 nM of recombinant human cGAS, and serial dilutions of a test compound in DMSO to a 384-well plate and incubate at ambient temperature for 3 hrs. Quench the reaction by the addition of 100 μL of stop solution containing 0.1% formic acid and 0.1 μM internal standard (3′3′-difluoro cGAMP). Measure the amount of cGAMP produced by RapidFire 365 mass spectrometry and evaluate inhibitory effect of a compound by plotting percent specific inhibition of cGAMP production against log concentration of the test compound. Calculate IC50 values using a 4-parameter non-linear logistic equation (y=(S0+((Sinf−S0)/(1+((qAC50/x)^nHill))))).
# T1 sequence (Q8N884 whole entry): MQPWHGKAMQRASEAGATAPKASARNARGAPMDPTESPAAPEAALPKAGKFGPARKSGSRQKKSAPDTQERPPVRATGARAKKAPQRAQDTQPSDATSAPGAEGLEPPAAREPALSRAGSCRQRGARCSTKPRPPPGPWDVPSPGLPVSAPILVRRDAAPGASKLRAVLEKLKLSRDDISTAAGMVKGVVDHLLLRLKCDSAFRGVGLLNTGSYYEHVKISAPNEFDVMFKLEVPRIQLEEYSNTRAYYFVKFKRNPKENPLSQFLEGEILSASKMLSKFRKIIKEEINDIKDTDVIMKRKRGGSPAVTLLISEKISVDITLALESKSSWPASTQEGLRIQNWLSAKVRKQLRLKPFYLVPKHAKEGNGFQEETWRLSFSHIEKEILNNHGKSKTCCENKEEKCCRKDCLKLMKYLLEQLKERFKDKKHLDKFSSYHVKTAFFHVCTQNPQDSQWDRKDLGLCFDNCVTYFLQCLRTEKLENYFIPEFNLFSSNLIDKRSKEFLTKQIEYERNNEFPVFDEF
pIC50 (cGAS [1]),pIC50 (cGAS [2]),SMILES
< 5.00,6.20,"C[C@H]1C(=O)NCCc2[nH]c3c(Cl)c(Cl)cc(NCC(F)(F)CO)c3c21 (single isomer, unassigned) [Example 69, (R)-7,8-Dichloro-10-((2,2-difluoro-3-hydroxypropyl)amino)-1-methyl-3,4,5,6-tetrahydroazepino[4,5-b]indol-2(1H)-one or (S)-7,8-Dichloro-10-((2,2-difluoro-3-hydroxypropyl)amino)-1-methyl-3,4,5,6-tetrahydroazepino[4,5-b]indol-2(1H)-one]"
5.87,8.08,"CC1C(=O)NCCc2c1c1c(NCCO)cc(Cl)c(Cl)c1n2C (single isomer, unassigned) [Example 51, 7,8-Dichloro-10-((2-hydroxyethyl)amino)-1,6-dimethyl-3,4,5,6-tetrahydroazepino[4,5-b]indol-2(1H)-one]"
6.01,7.27,"CC1C(=O)NCCc2[nH]c3c(Cl)c(Cl)cc(NC4COC4)c3c21 (racemic) [Example 60, 7,8-Dichloro-1-methyl-10-(oxetan-3-ylamino)-3,4,5,6-tetrahydroazepino[4,5-b]indol-2(1H)-one]"
6.07,7.85,"CC1C(=O)NCCc2c1c1c(OCCCO)cc(Cl)c(Cl)c1n2C (centres unmarked) [Example 77, 7,8-Dichloro-10-(3-hydroxypropoxy)-1,6-dimethyl-3,4,5,6-tetrahydroazepino[4,5-b]indol-2(1H)-one]"
6.40,7.91,"C[C@@H]1CNC(=O)[C@@H](C)c2c1[nH]c1c(Cl)c(Cl)cc(NCCO)c21 (single isomer, unassigned) [Example 154]"
5.95,7.52,"C[C@@H](O)CNc1cc(Cl)c(Cl)c2c1c1c(n2C)CCNC(=O)[C@@H]1C (single isomer, unassigned) [Example 100]"
5.65,7.33,"CCCNc1cc(Cl)c(Cl)c2[nH]c3c(c12)C(C)C(=O)NCC3 (centres unmarked) [Example 45, 7,8-Dichloro-1-methyl-10-(propylamino)-3,4,5,6-tetrahydroazepino[4,5-b]indol-2(1H)-one]"
< 5.00,5.32,"C[C@@H]1C(=O)NCCc2[nH]c3c(Cl)c(Cl)cc(OC[C@@H](C)O)c3c21 (single isomer, unassigned) [Example 83]"
< 5.00,6.44,"COCC[C@H]1CNC(=O)[C@@H](C)c2c1[nH]c1c(Cl)c(Cl)cc(NCCO)c21 (single isomer, unassigned) [Example 174]"
5.89,7.52,"CC1C(=O)NCCc2[nH]c3c(Cl)c(Cl)cc(NCC(F)F)c3c21 (centres unmarked) [Example 70, 7,8-Dichloro-10-((2,2-difluoroethyl)amino)-1-methyl-3,4,5,6-tetrahydroazepino[4,5-b]indol-2(1H)-one]"
6.22,7.70,"COCCNc1cc(Cl)c(Cl)c2[nH]c3c(c12)[C@@H](C)C(=O)NCC3 (single isomer, unassigned) [Example 47]"
6.33,7.76,"C[C@H]1C(=O)NCCc2[nH]c3c(Cl)c(Cl)cc(NCCCO)c3c21 (single isomer, unassigned) [Example 53]"
5.67,7.06,"CC1C(=O)NCCc2[nH]c3c(Cl)c(Cl)cc(-c4cnn(C)n4)c3c21 (centres unmarked) [Example 9, 7,8-Dichloro-1-methyl-10-(2-methyl-2H-1,2,3-triazol-4-yl)-3,4,5,6-tetrahydroazepino[4,5-b]indol-2(1H)-one]"
6.05,7.26,"COCC(=O)Nc1cc(Cl)c(Cl)c2[nH]c3c(c12)C(C)C(=O)NCC3 (centres unmarked) [Example 39, N-(7,8-Dichloro-1-methyl-2-oxo-1,2,3,4,5,6-hexahydroazepino[4,5-b]indol-10-yl)-2-methoxyacetamide]"
< 5.00,5.74,"COCC[C@H]1CNC(=O)[C@H](C)c2c1[nH]c1c(Cl)c(Cl)cc(NCCO)c21 (single isomer, unassigned) [Example 172]"
< 5.00,7.73,"COCCNc1cc(Cl)c(Cl)c2c1c1c(n2C)CCNC(=O)C1C (centres unmarked) [Example 96, 7,8-Dichloro-10-((2-methoxyethyl)amino)-1,6-dimethyl-3,4,5,6-tetrahydroazepino[4,5-b]indol-2(1H)-one]"

# Further lines, the compound ahead of its results:
SMILES,pIC50 (cGAS [1]),pIC50 (cGAS [2])
"O=C1Cc2c([nH]c3c(Cl)c(Cl)cc(-c4nc(CO)no4)c23)CCN1 [Example 26, 7,8-Dichloro-10-(3-(hydroxymethyl)-1,2,4-oxadiazol-5-yl)-3,4,5,6-tetrahydroazepino[4,5-b]indol-2(1H)-one]",< 5.00,6.88
"O=C1Cc2c([nH]c3c(Cl)c(Cl)cc(-c4nnc[nH]4)c23)CCN1 [Example 29, 7,8-Dichloro-10-(4H-1,2,4-triazol-3-yl)-3,4,5,6-tetrahydroazepino[4,5-b]indol-2(1H)-one]",< 5.00,6.91
"Cn1ncc(-c2cc(Cl)c(Cl)c3[nH]c4c(c23)CC(=O)NCC4CC(C)(C)O)n1 (centres unmarked) [Example 102, 7,8-Dichloro-5-(2-hydroxy-2-methylpropyl)-10-(2-methyl-2H-1,2,3-triazol-4-yl)-3,4,5,6-tetrahydroazepino[4,5-b]indol-2(1H)-one]",6.14,7.63
"CC1C(=O)NCCc2[nH]c3c(Cl)c(Cl)cc(NC(=O)C4CCO4)c3c21 (centres unmarked) [Example 44, N-(7,8-Dichloro-1-methyl-2-oxo-1,2,3,4,5,6-hexahydroazepino[4,5-b]indol-10-yl)oxetane-2-carboxamide]",5.55,7.41
"Cn1c2c(c3c(CC#N)cc(Cl)c(Cl)c31)CC(=O)NC[C@H]2CC(C)(C)O (single isomer, unassigned) [Example 129]",5.88,5.81
"C[C@H]1C(=O)NCCc2[nH]c3c(Cl)c(Cl)cc(N[C@@H]4CCOC4)c3c21 (single isomer, unassigned) [Example 64]",5.62,7.42
"CN(C)C(=O)CC1CNC(=O)Cc2c1[nH]c1c(Cl)c(Cl)cc(-c3cnn(C)n3)c21 (centres unmarked) [Example 7, 2-(7,8-Dichloro-10-(2-methyl-2H-1,2,3-triazol-4-yl)-2-oxo-1,2,3,4,5,6-hexahydroazepino[4,5-b]indol-5-yl)-N,N-dimethylacetamide]",6.18,7.55
"Cn1ncc(-c2cc(Cl)c(Cl)c3[nH]c4c(c23)CC(=O)NC[C@H]4CCN2CCOCC2)n1 (single isomer, unassigned) [Example 175]",5.84,7.26
"Cn1c2c(c3c(OCC#N)cc(Cl)c(Cl)c31)CC(=O)NC[C@H]2CC(C)(C)O (single isomer, unassigned) [Example 110, (R)-2-((7,8-Dichloro-5-(2-hydroxy-2-methylpropyl)-6-methyl-2-oxo-1,2,3,4,5,6-hexahydroazepino[4,5-b]indol-10-yl)oxy)acetonitrile or (S)-2-((7,8-Dichloro-5-(2-hydroxy-2-methylpropyl)-6-methyl-2-oxo-1,2,3,4,5,6-hexahydroazepino[4,5-b]indol-10-yl)oxy)acetonitrile]",5.51,5.58
"C[C@@H]1CNC(=O)[C@H](C)c2c1[nH]c1c(Cl)c(Cl)cc(NC(=O)CO)c21 (relative stereo) [Example 159, cis-N-(7,8-dichloro-1,5-dimethyl-2-oxo-1,2,3,4,5,6-hexahydroazepino[4,5-b]indol-10-yl)-2-hydroxyacetamide]",5.86,7.22
"Cn1c2c(c3c(CC#N)cc(Cl)c(Cl)c31)CC(=O)NC[C@H]2CCO (single isomer, unassigned) [Example 123]",6.74,7.85
"C[C@@H]1C(=O)NCCc2[nH]c3c(Cl)c(Cl)cc(OCC#N)c3c21 (single isomer, unassigned) [Example 16B]",6.00,6.00
